# Laboratory results published in patent US11634447B2 (priority 2012, dated 2023).
# Molecular target: bacterial strain LF82 binding to the glycoprotein BSA-(Mannose)3
# Assay: Bacterial Binding Assay (BBA)
# Format: cell-based, Escherichia coli
# Conditions: LF82/Luciferase strain binding to BSA-(Man)3 coated plates, luminescence; read-out: Bacterial Binding Assay IC50
# Description: The purpose of the Bacterial Binding Assay (BBA) is to determine the inhibition activity of
# selective FimH antagonists on the bacterial strain LF82 binding to the glycoprotein BSA-(Mannose)3.
# Below is a list of the Materials used to run the BBA are described below. • 1. LB broth: Supplier: Gibco, #10855 • 2. D-PBS: Supplier: Wisent, #311-425-CL • 3. LB agar plates • 4. 96-well black plate (high binding): Supplier: Costar, #3925 • 5. TopSeal™-A adhesive sealing films; Supplier PerkinElmer, #6005185 • 6. Carbonate-bicarbonate buffer pH 9.6 tablets, Supplier: Medicago, #09-8922-24 • 7. Water, Supplier: Gibco, #15230-162 • 8. Bovine serum albumin (BSA): Supplier: Sigma, #A-7888 • 9. (Man)3-BSA (α1-3, α1-6 Mannotriose-BSA, 1 mg), V-Labs, #NGP1336, lot #HGDX37-169-1 • 10. Tween 20: Supplier: Sigma, #P9416 • 11. Bright-Glo Luciferase Assay System: Supplier: Promega, #E2610 • 12. LF82/Luciferase strain: Invasive ability of an Escherichia coli strain isolated from the ileal mucosa of a patient with Crohn ? disease. Boudeau J, Glasser A L, Masseret E, Joly B, Darfeuille-Michaud A, Infect Immun. 1999, 67(9), 4499-509
# Solutions and buffers used to run the BBA are described below. • 1. 0.04M carbonate-bicarbonate buffer (coating buffer) • 2. 40 μg/mL BSA-(Man)3: Dissolve 1 mg of (Man)3-BSA in 25 mL of water. • 3. 4000 μg/mL BSA • 4. 40 μg/mL BSA • 5. 1 μg/mL BSA-(Man)3: 150 μL of 40 μg/mL BSA-(Man)3+5.85 mL of 40 μg/mL BSA • 6. 0.5 μg/mL BSA-(Man)3 in 0.02M carbonate-bicarbonate buffer. • 7. 20 μg/mL BSA in 0.02M carbonate-bicarbonate buffer • 8. Blocking buffer (2% BSA/DPBS): 1 g of BSA in 50 mL D-PBS • 9. 2× binding buffer (0.2% BSA/D-PBS): 5 mL of blocking buffer+45 mL D-PBS. • 10. Washing buffer (D-PBS/0.01% Tween 20): 10 μL of Tween 20 in 100 mL D-PBS. • 11. 1× Bright-Glo Luciferase substrate: Dilute 1:1 the Bright-Glo Luciferase Assay System with D-PBS The experimental protocol to run the BBA is described below.
# Overnight culture of LF82/Luciferase strain: Into two Falcon 50 mL tubes, add 20 mL of LB+20 μL of 50 mg/mL Kanamycin and inoculate with a loop from glycerol stock of the LF82/Luciferase strain. Incubate overnight at 37° C. with no shaking.
# Glycoprotein coating of 96-well plates: Add 100 μL/well of 0.5-2 μg/mL BSA-(Man)3. 20 μg/mL BSA is used as the control background. Seal plate using an adhesive sealing film and incubate overnight at room temperature. Wash the 96-well plate three times with 150 μL/well of D-PBS, add 170 μL/well of blocking solution and incubate 45 min (minimum) at room temperature.
# Preparation of bacterial suspension: Mix the two cultures tubes (40 mL) and perform a 1:10 dilution in LB (900 μl LB+100 μl culture. Measure optical density (OD) of the bacterial cultures. OD1 ˜5×10^8 cells/mL. Centrifuge LF82 culture for 20 min at 3500 rpm at room temperature. Re-suspend bacterial pellet in D-PBS and centrifuge again for 20 min at 3500 rpm. Re-suspend bacterial pellet in D-PBS to obtain a bacterial concentration of 2×10^9 bacteria/mL. Dilute 1/10 in D-PBS to obtain a final bacterial concentration of 2×10^8 bacteria/mL (=107 bacteria/50 μL). Perform 1/10 serial dilutions in LB of each bacterial suspension, plate 10 μL of dilutions on LB agar plates (final dilutions of 10^−7) and incubate overnight at 37° C. and count CFUs to determine the actual bacteria density in the assay.
# Bacterial binding assay: Add 147 μL 2× binding buffer to compound plate (containing 3 μL of compound). After blocking step is performed (at least 45 min), wash plates three times with 200 μL/well of D-PBS. With a 100 μL multichannel manual pipettor, add 50 µL/well of compound diluted in 2× binding buffer. With a 100 μL multichannel manual pipettor, add 50 μL/well of bacterial suspension. Agitate at slow speed for 1 min and incubate 40-75 min at room temperature. Wash 5 times with 150 μL/well of washing buffer and then once with D-PBS. Add 100 μL/well of 1× Bright-Glo Luciferase substrate. […]
row,SMILES,IC50 [nM]
1,OC[C@H]1O[C@H](C#Cc2ccc(-c3ccc(C#C[C@H]4O[C@H](CO)[C@@H](O)[C@H](O)[C@@H]4O)s3)s2)[C@@H](O)[C@@H](O)[C@@H]1O [Compound 128],22

# Same assay, conditions: read-out: Bacterial Binding Assay IC50, LF82/Luciferase strain binding to BSA-(Man)3 coated plates, luminescence
row,SMILES,IC50 [nM]
1,"CCC1(O)c2cc(C#C[C@H]3O[C@H](CO)[C@@H](O)[C@H](O)[C@@H]3O)ccc2-c2ccc(C#C[C@H]3O[C@H](CO)[C@@H](O)[C@H](O)[C@@H]3O)cc21 [Compound 166, (2R,3S,4R,5S,6R)-2-[2-[9-ethyl-9-hydroxy-7-[2-[(2R,3S,4R,5S,6R)-3,4,5-trihydroxy-6-(hydroxymethyl)tetrahydropyran-2-yl]ethynyl]fluoren-2-yl]ethynyl]-6-(hydroxymethyl)tetrahydropyran-3,4,5-triol]",3
2,CCc1cc(C#C[C@H]2O[C@H](CO)[C@@H](O)[C@H](O)[C@@H]2O)cc(CC)c1C#C[C@H]1O[C@H](CO)[C@@H](O)[C@H](O)[C@@H]1O [Compound 73],21
3,"CCCCCCc1cc(C#C[C@H]2O[C@H](CO)[C@@H](O)[C@H](O)[C@@H]2O)c(CCCCCC)cc1C#C[C@H]1O[C@H](CO)[C@@H](O)[C@H](O)[C@@H]1O [Compound 82, (2R,3S,4R,5S,6R)-2-[2-[2,5-dihexyl-4-[2-[(2R,3S,4R,5S,6R)-3,4,5-trihydroxy-6-(hydroxymethyl)tetrahydropyran-2-yl]ethynyl]phenyl]ethynyl]-6-(hydroxymethyl)tetrahydropyran-3,4,5-triol]",18
4,CC(C)(C#N)c1cc(C#C[C@H]2O[C@H](CO)[C@@H](O)[C@H](O)[C@@H]2O)ccc1C#C[C@H]1O[C@H](CO)[C@@H](O)[C@H](O)[C@@H]1O [Compound 70],15
5,"OC[C@H]1O[C@H](C#Cc2ccc3c4ccc(C#C[C@H]5O[C@H](CO)[C@@H](O)[C@H](O)[C@@H]5O)cc4n(C4CCOCC4)c3c2)[C@@H](O)[C@@H](O)[C@@H]1O [Compound 184, (2R,3S,4R,5S,6R)-2-(hydroxymethyl)-6-[2-[9-tetrahydropyran-4-yl-7-[2-[(2R,3S,4R,5S,6R)-3,4,5-trihydroxy-6-(hydroxymethyl)tetrahydropyran-2-yl]ethynyl]carbazol-2-yl]ethynyl]tetrahydropyran-3,4,5-triol]",0.83
6,"O=C1c2cc(C#C[C@H]3O[C@H](CO)[C@@H](O)[C@H](O)[C@@H]3O)ccc2-c2ccc(C#C[C@H]3O[C@H](CO)[C@@H](O)[C@H](O)[C@@H]3O)cc21 [Compound 119, 2,7-bis[2-[(2R,3S,4R,5S,6R)-3,4,5-trihydroxy-6-(hydroxymethyl)tetrahydropyran-2-yl]ethynyl]fluoren-9-one]",14
7,"OC[C@H]1O[C@H](C#Cc2ccc3oc4ccc(C#C[C@H]5O[C@H](CO)[C@@H](O)[C@H](O)[C@@H]5O)cc4c3c2)[C@@H](O)[C@@H](O)[C@@H]1O [Compound 106, (2R,3S,4R,5S,6R)-2-(hydroxymethyl)-6-[2-[8-[2-[(2R,3S,4R,5S,6R)-3,4,5-trihydroxy-6-(hydroxymethyl)tetrahydropyran-2-yl]ethynyl]dibenzofuran-2-yl]ethynyl]tetrahydropyran-3,4,5-triol]",7.9
8,"OC[C@H]1O[C@H](C#Cc2ccc3c(c2)C(O)c2cc(C#C[C@H]4O[C@H](CO)[C@@H](O)[C@H](O)[C@@H]4O)ccc2-3)[C@@H](O)[C@@H](O)[C@@H]1O (stereo partly drawn) [Compound 195, (2R,3S,4R,5S,6R)-2-(hydroxymethyl)-6-[2-[9-hydroxy-7-[2-[(2R,3S,4R,5S,6R)-3,4,5-trihydroxy-6-(hydroxymethyl)tetrahydropyran-2-yl]ethynyl]-9H-fluoren-2-yl]ethynyl]tetrahydropyran-3,4,5-triol]",18
9,OC[C@H]1O[C@H](C#Cc2ccc3c(c2)C2(SCCCS2)c2cc(C#C[C@H]4O[C@H](CO)[C@@H](O)[C@H](O)[C@@H]4O)ccc2-3)[C@@H](O)[C@@H](O)[C@@H]1O [Compound 191],0.36
10,"CN1CCC(Cn2c3cc(C#C[C@H]4O[C@H](CO)[C@@H](O)[C@H](O)[C@@H]4O)ccc3c3ccc(C#C[C@H]4O[C@H](CO)[C@@H](O)[C@H](O)[C@@H]4O)cc32)CC1 [Compound 188, (2R,3S,4R,5S,6R)-2-(hydroxymethyl)-6-[2-[9-[(1-methyl-4-piperidyl)methyl]-7-[2-[(2R,3S,4R,5S,6R)-3,4,5-trihydroxy-6-(hydroxymethyl)tetrahydropyran-2-yl]ethynyl]carbazol-2-yl]ethynyl]tetrahydropyran-3,4,5-triol]",4.3
11,CC1(Cn2c3cc(C#C[C@H]4O[C@H](CO)[C@@H](O)[C@H](O)[C@@H]4O)ccc3c3ccc(C#C[C@H]4O[C@H](CO)[C@@H](O)[C@H](O)[C@@H]4O)cc32)COC1 [Compound 186],0.28
12,"OC[C@H]1O[C@H](c2ccc(C#C[C@H]3O[C@H](CO)[C@@H](O)[C@H](O)[C@@H]3O)cc2)[C@@H](O)[C@@H](O)[C@@H]1O [Compound 141, (2R,3S,4R,5S,6R)-2-(hydroxymethyl)-6-[2-[4-[(2R,3S,4R,5S,6R)-3,4,5-trihydroxy-6-(hydroxymethyl)tetrahydropyran-2-yl]phenyl]ethynyl]tetrahydropyran-3,4,5-triol]",340
13,"O=C(O)Cn1c2cc(C#C[C@H]3O[C@H](CO)[C@@H](O)[C@H](O)[C@@H]3O)ccc2c2ccc(C#C[C@H]3O[C@H](CO)[C@@H](O)[C@H](O)[C@@H]3O)cc21 [Compound 176, 2-[2,7-Bis[2-[(2R,3S,4R,5S,6R)-3,4,5-trihydroxy-6-(hydroxymethyl)tetrahydropyran-2-yl]ethynyl]carbazol-9-yl]acetic acid]",10
14,"OC[C@H]1O[C@H](C#Cc2ccc3c(c2)C(O)(c2ccccc2)c2cc(C#C[C@H]4O[C@H](CO)[C@@H](O)[C@H](O)[C@@H]4O)ccc2-3)[C@@H](O)[C@@H](O)[C@@H]1O (stereo partly drawn) [Compound 167, (2R,3S,4R,5S,6R)-2-(hydroxymethyl)-6-[2-[9-hydroxy-9-phenyl-7-[2-[(2R,3S,4R,5S,6R)-3,4,5-trihydroxy-6-(hydroxymethyl)tetrahydropyran-2-yl]ethynyl]fluoren-2-yl]ethynyl]tetrahydropyran-3,4,5-triol]",16
15,"CCC(=O)c1c(C#C[C@H]2O[C@H](CO)[C@@H](O)[C@H](O)[C@@H]2O)ccc2c1C1(CCNCC1)c1cc(C#C[C@H]3O[C@H](CO)[C@@H](O)[C@H](O)[C@@H]3O)ccc1-2 [Compound 223, 1-[2,7-bis[2-[(2R,3S,4R,5S,6R)-3,4,5-trihydroxy-6-(hydroxymethyl)tetrahydropyran-2-yl]ethynyl]spiro[fluorene-9,4piperidine]-1-yl]propan-1-one]",0.06
16,"CN1CCN(C(=O)Cn2c3cc(C#C[C@H]4O[C@H](CO)[C@@H](O)[C@H](O)[C@@H]4O)ccc3c3ccc(C#C[C@H]4O[C@H](CO)[C@@H](O)[C@H](O)[C@@H]4O)cc32)CC1 [Compound 179, 2-[2,7-bis[2-[(2R,3S,4R,5S,6R)-3,4,5-trihydroxy-6-(hydroxymethyl)tetrahydropyran-2-yl]ethynyl]carbazol-9-yl]-1-(4-methylpiperazin-1-yl)ethanone]",7.1
